Measured values reported in patent US4379148A, “Analgesic and anti-inflammatory composition” (priority 1981, dated 1983).
“Also recorded” adds a separate entry of the source. Where two headings read alike, the source gives them in different places.

Key:
[1] = in words; for inhibitory effect in combination with emorfazone: combination with 100 mg/kg of emorfazone
Method: Female Sprague-Dawley rats (180-220 g) were used. […] On day 0 of the test, the adjuvant containing 0.6 mg of Mycobacterium butylicum (Difco) in 0.1 ml of liquid paraffin was injected into the plantar surface of the right hind paw. The test drugs were administered orally once a day for 15 days. The severity of inflammation of the 4 paws and the tail of each rat was evaluated visually at day 30 and scored by a point system. The grading for each lesion was on a 0 to 3 scale with 0 indicating absence of inflammation and 3 indicating maximum inflammation.

in vivo = details: mouse, po
[2] = Analgesic Test by Randall-Selitto Method (carrageenin inflammatory pain); format: in vivo, Male Wistar rats; details: for ED50: Rattus norvegicus, po, read-out: ED50 (dose that increased the mean pain threshold of the control group by 50%), drug alone; for ED50 dose obtained experimentally, with emorfazone 4.5 / theoretical additive ED50 dose, with emorfazone 4.5 / ED50 dose obtained experimentally, with emorfazone 9 / theoretical additive ED50 dose, with emorfazone 9: p.o.; for ED50 dose obtained experimentally, with emorfazone 4.5 / theoretical additive ED50 dose, with emorfazone 4.5: combined with emorfazone 4.5 mg/kg; for ED50 dose obtained experimentally, with emorfazone 9 / theoretical additive ED50 dose, with emorfazone 9: combined with emorfazone 9 mg/kg
Method: Male Wistar rats (120-140 g) fasted for 18 hours were divided into test groups and a control group of 5 animals per group. […] The pain threshold was measured after the carrageenin injection at hourly intervals for 3 hours with an analgesy meter (Ugo Basile, Milan).

[3] = p.o., combined with emorfazone 240 mg/kg
[4] = Anti-inflammatory Test by Whittle's Method (acetic acid, dye in peritoneal exudate); format: in vivo, Male ddY mice
Method: Male ddY mice (18-22 g) fasted for 18 hours were divided into test groups and a control group of 7 or 8 animals each. […] Ten minutes later, 10 ml/kg of 0.7% acetic acid dissolved in physiological saline was injected intraperitoneally into all animals and 20 minutes thereafter the animals were sacrificed. The amount of the dye in the peritoneal exudate was determined at 590 nm by using a spectrophotometer (Hitachi Instrument Co.). The ED30 was defined as the dose which decreased the amount of dye of the control group by 30%, and was determined graphically.

[5] = Analgesic Test by Phenylquinone Writhing Method; format: in vivo, Male ddY mice; details: for ED50: Mus musculus, po, read-out: ED50 (dose that reduced the number of writhes of the control group by 50%), drug alone; for combined analgesic effect with emorfazone: combination with emorfazone, in words; for ED50 dose obtained experimentally, with emorfazone 10 / theoretical additive ED50 dose, with emorfazone 10 / ED50 dose obtained experimentally, with emorfazone 20 / theoretical additive ED50 dose, with emorfazone 20: p.o.; for ED50 dose obtained experimentally, with emorfazone 10: combined with emorfazone 10 mg/kg (1/4 of its ED50); for theoretical additive ED50 dose, with emorfazone 10: combined with emorfazone 10 mg/kg; for ED50 dose obtained experimentally, with emorfazone 20: combined with emorfazone 20 mg/kg (1/2 of its ED50); for theoretical additive ED50 dose, with emorfazone 20: combined with emorfazone 20 mg/kg
Method: Male ddY mice (18-22 g) fasted for 18 hours were divided into test groups and a control group of 7 animals per group. […] The number of writhes was counted for 20 minutes after the p-phenylquinone injection.

[6] = test system: biosynthesis of prostaglandin; assay: inhibition of the biosynthesis of prostaglandin; format: biochemical; details: in words
[7] = LD50 dose obtained experimentally, with emorfazone 240, p.o., combined with emorfazone 240 mg/kg
[8] = Mus musculus, po; read-out: ED30 (dose which decreased the amount of dye of the control group by 30%), drug alone
[9] = p.o.; combined with emorfazone 28.8 mg/kg
[10] = p.o.; combined with emorfazone 28.8 mg/kg; theoretical additive dose
[11] = p.o.; combined with emorfazone 86 mg/kg
[12] = p.o.; combined with emorfazone 86 mg/kg; theoretical additive dose

Structure (SMILES) | inhibitory effect in combination with emorfazone [1] | LD50 at 168 h (in vivo) [mg/kg] | LD50 at 168 h (in vivo; [7]) [mg/kg] | ED50 [2] [mg/kg] | ED50 dose obtained experimentally, with emorfazone 4.5 [2] [mg/kg] | theoretical additive ED50 dose, with emorfazone 4.5 [2] [mg/kg] | ED50 dose obtained experimentally, with emorfazone 9 [2] [mg/kg] | theoretical additive ED50 dose, with emorfazone 9 [2] [mg/kg] | theoretical additive LD50 dose, with emorfazone 240 [3] [mg/kg] | ED30 [4, 8] [mg/kg] | ED30 dose obtained experimentally, with emorfazone 28.8 [4, 9] [mg/kg] | theoretical additive ED30 dose, with emorfazone 28.8 [4, 10] [mg/kg] | ED30 dose obtained experimentally, with emorfazone 86 [4, 11] [mg/kg] | theoretical additive ED30 dose, with emorfazone 86 [4, 12] [mg/kg] | ED50 [5] [mg/kg] | combined analgesic effect with emorfazone [5] | ED50 dose obtained experimentally, with emorfazone 10 [5] [mg/kg] | theoretical additive ED50 dose, with emorfazone 10 [5] [mg/kg] | ED50 dose obtained experimentally, with emorfazone 20 [5] [mg/kg] | theoretical additive ED50 dose, with emorfazone 20 [5] [mg/kg] | further results
CC(=O)Oc1ccccc1C(=O)O [Acetylsalicylic acid, acetylsalicylic acid] | not essentially affected | 1260 | 1000 | 340 | 240 | 255 | 70 | 170 | 945 | 225 | 160 | 168.8 | 110 | 112.5 | 155 | for the most part a synergistic response | 115 | 116.3 | 40 | 77.5 | 
CCOc1c(N2CCOCC2)cnn(C)c1=O [Emorfazone, 4-ethoxy-2-methyl-5-morpholino-3(2H)-pyridazinone] |  |  |  | 18 |  |  |  |  |  | 115 |  |  |  |  | 40 |  |  |  |  |  | inhibitory effect of emorfazone alone ([1]; 100 mg/kg, used alone): did not show any significant effect when used alone; inhibition of the biosynthesis of prostaglandin (emorfazone) [6]: does not inhibit the biosynthesis of prostaglandin
CC(C(=O)O)c1ccc(-c2ccccc2)c(F)c1 (stereo not shown) [Flurbiprofen] | significantly potentiated | 210 | 155 | 22 | 15 | 16.5 |  | 11 | 157.5 |  | 2.8 | 3.0 | 1.9 | 2 | 2 | for the most part a synergistic response | 6.2 | 8 | 0.8 | 1 | ED30 ([4]; Mus musculus, po, read-out: ED30 (dose which decreased the amount of dye of the control group by 30%), drug alone): 4 mg/kg
CC(C)Cc1ccc(C(C)C(=O)O)cc1 (stereo not shown) [Ibuprofen] | significantly potentiated |  |  | 120 | 10 | 90 | 8 | 60 | 862.5 | 76 | 56 | 57 | 37 | 38 | 13.5 | for the most part a synergistic response | 8 | 10.1 | 3 | 6.8 | 
COc1ccc2c(c1)c(CC(=O)O)c(C)n2C(=O)c1ccc(Cl)cc1 [Indomethacin] | significantly potentiated | 11.3 | 13 | 6.8 | 0.8 | 5.1 | 0.3 | 3.4 | 8.5 | 2.2 | 1.6 | 1.65 | 1 | 1.1 | 0.52 | for the most part a synergistic response | 0.33 | 0.39 | 0.18 | 0.26 | 
CC(C(=O)O)c1cccc(C(=O)c2ccccc2)c1 (stereo not shown) [Ketoprofen] | significantly potentiated | 305 | 380 | 6 | 3 | 4.5 | 1 | 3 |  | 3.2 | 2.2 | 2.4 | 1.3 | 1.6 | 0.5 | for the most part a synergistic response | 0.37 | 0.38 | 0.23 | 0.25 | 
Cc1cccc(Nc2ccccc2C(=O)O)c1C [Mefenamic acid] | significantly potentiated |  |  | 120 | 58 | 90 | 20 | 60 | 892.5 | 82 | 60 | 61.5 | 41 | 41 | 36 | for the most part a synergistic response | 21 | 27 | 13 | 18 | 
COc1ccc2cc([C@H](C)C(=O)O)ccc2c1 [Naproxen] | significantly potentiated |  |  | 240 | 160 | 180 | 60 | 120 |  | 12 | 8.5 | 9 | 5.8 | 6 | 9 | for the most part a synergistic response | 6.2 | 6.3 | 4.1 | 4.5 | 
CCCCC1C(=O)N(c2ccccc2)N(c2ccccc2)C1=O [Phenylbutazone] | not essentially affected |  |  | 125 | 22 | 93.8 | 19 | 62.5 | 427.5 | 175 | 130 | 131.3 | 86 | 87.5 | 66 | potentiated by the emorfazone; also recorded: for the most part a synergistic response | 32 | 49.5 | 16 | 33 | 
